# According to patent publication US20230113037A1 (Bayer Aktiengesellschaft, priority 2019, published 2023):
# Target: T1, AHR (Mus musculus, UniProt P30561)
# T1 sequence (P30561 1-848 P471L/N533S/M589L): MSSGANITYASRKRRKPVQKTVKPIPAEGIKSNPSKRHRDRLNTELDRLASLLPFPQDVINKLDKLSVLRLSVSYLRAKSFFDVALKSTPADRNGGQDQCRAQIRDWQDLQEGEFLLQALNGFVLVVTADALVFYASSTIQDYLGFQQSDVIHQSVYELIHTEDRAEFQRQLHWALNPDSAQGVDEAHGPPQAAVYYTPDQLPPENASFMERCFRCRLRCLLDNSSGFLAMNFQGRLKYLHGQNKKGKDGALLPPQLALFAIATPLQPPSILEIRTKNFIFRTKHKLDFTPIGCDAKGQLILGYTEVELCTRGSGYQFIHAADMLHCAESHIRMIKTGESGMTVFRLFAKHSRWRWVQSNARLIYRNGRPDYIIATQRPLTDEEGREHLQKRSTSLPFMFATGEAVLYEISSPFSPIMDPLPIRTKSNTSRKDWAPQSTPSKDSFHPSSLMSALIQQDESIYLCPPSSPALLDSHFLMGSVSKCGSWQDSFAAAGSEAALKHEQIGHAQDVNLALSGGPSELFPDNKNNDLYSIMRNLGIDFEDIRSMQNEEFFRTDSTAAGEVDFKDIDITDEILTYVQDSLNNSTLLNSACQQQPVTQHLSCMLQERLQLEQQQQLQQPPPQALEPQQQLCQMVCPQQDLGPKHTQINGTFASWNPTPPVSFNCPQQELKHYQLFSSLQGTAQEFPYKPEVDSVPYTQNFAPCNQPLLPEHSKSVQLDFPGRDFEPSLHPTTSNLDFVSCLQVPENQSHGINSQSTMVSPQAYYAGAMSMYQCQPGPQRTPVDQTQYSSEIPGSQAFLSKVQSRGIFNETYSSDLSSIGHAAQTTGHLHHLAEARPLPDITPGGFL
# Assay: In vitro assay 3: antagonism in mouse cell line (AHR transactivation, firefly luciferase reporter, kynurenic acid prestimulated)
# Format: cell-based
# Conditions: Hepa 1c1c7 cells, 200 μM kynurenic acid, 20 hours, firefly luciferase reporter, read-out: AHR Antagonism Mouse IC50
# Experimental: Examples were tested in selected biological assays one or more times. When tested more than once, data are reported as either average values or as median values, wherein • the average value, also referred to as the arithmetic mean value, represents the sum of the values obtained divided by the number of times tested, and • the median value represents the middle number of the group of values when ranked in ascending or descending order. If the number of values in the data set is odd, the median is the middle value. If the number of values in the data set is even, the median is the arithmetic mean of the two middle values.
# In addition the cells were stably transfected with an AHR inducible firefly luciferase reporter gene construct that carried AHR-binding sites (DRE) in its promoter. Kynurenic acid is an endogenous AHR activating ligand and was used to prestimulate test cells prior to testing the antagonistic properties of compounds.
# As positive inhibition control cells without addition of kynurenic acid were incubated. Normalization was done by positive and negative controls.
# Firefly luciferase activity was determined by the SteadyGlo Luciferase Assay System (Promega, #E2550).
row,SMILES,IC50
1,"C[C@@H](Nc1nc2ccccc2c2nc(-c3ccccc3OC(F)(F)F)nn12)C(=O)NCCN(C)C [Example 792, N-[2-(dimethylamino)ethyl]-N^2-{2-[2-(trifluoromethoxy)phenyl][1,2,4]triazolo[1,5-c]quinazolin-5-yl}-D-alaninamide]",0.0287 µM

# Same assay, conditions: mouse Hepa 1c1c7 cells, 200 μM kynurenic acid, 20 hours, read-out: AHR Antagonism Mouse IC50
row,IC50,SMILES
1,0.00018 µM,"Cc1ccc(-c2nc3c4ccccc4nc(N[C@@H]4CCCCNC4=O)n3n2)cc1 [Example 56, (3R)-3-{[2-(4-methylphenyl)[1,2,4]triazolo[1,5-c]quinazolin-5-yl]amino}azepan-2-one]"
2,0.238 µM,"COc1ccc(-c2nc3c4ccccc4nc(NC4CCCNC4=O)n3n2)cc1 (single isomer, unassigned) [Example 37, 3-{[2-(4-methoxyphenyl)[1,2,4]triazolo[1,5-c]quinazolin-5-yl]amino}piperidin-2-one]"
3,0.00969 µM,"COc1ccc(-c2nc3c4ccccc4nc(N[C@H](CC(C)C)C(N)=O)n3n2)cc1 [Example 27, N^2-[2-(4-methoxyphenyl)[1,2,4]triazolo[1,5-c]quinazolin-5-yl]-D-leucinamide]"
4,0.00254 µM,"O=C1NCC[C@H]1Nc1nc2c(Br)cccc2c2nc(-c3ccc(F)cc3)nn12 [Example 217, (3R)-3-{[7-bromo-2-(4-fluorophenyl)[1,2,4]triazolo[1,5-c]quinazolin-5-yl]amino}pyrrolidin-2-one]"
5,0.00694 µM,"CSc1ccc(-c2nc3c4ccccc4nc(N[C@@H]4CNCCNC4=O)n3n2)cc1 [Example 256, (6R)-6-({2-[4-(methylsulfanyl)phenyl][1,2,4]triazolo[1,5-c]quinazolin-5-yl}amino)-1,4-diazepan-5-one]"
6,0.485 µM,"COc1ccc(-c2nc3c4ccccc4nc(N[C@@H](CCCCNC(=O)OC(C)(C)C)C(N)=O)n3n2)cc1 [Example 25, tert-butyl [(5S)-6-amino-5-{[2-(4-methoxyphenyl)[1,2,4]triazolo[1,5-c]quinazolin-5-yl]amino}-6-oxohexyl]carbamate]"
7,8.71 µM,"COc1ccc(-c2nc3c4cc(C(F)(F)F)ccc4nc(N[C@@H]4CNCCNC4=O)n3n2)cc1 [Example 418, (6R)-6-{[2-(4-methoxyphenyl)-9-(trifluoromethyl)[1,2,4]triazolo[1,5-c]quinazolin-5-yl]amino}-1,4-diazepan-5-one]"
8,0.45 µM,"COc1ccc(-c2nc3c4ccccc4nc(N[C@H](C)C(=O)O)n3n2)cc1 [Example 658, N-[2-(4-methoxyphenyl)[1,2,4]triazolo[1,5-c]quinazolin-5-yl]-D-alanine]"
9,0.0349 µM,"COc1ccc(-c2nc3c4c(C)cccc4nc(NC4CNCCNC4=O)n3n2)cc1 (stereo not drawn) [Example 192, 6-{[2-(4-methoxyphenyl)-10-methyl[1,2,4]triazolo[1,5-c]quinazolin-5-yl]amino}-1,4-diazepan-5-one]"
10,0.00386 µM,"O=C1NCCCC[C@@H]1Nc1nc2ccccc2c2nc(-c3ccc(F)cc3)nn12 [Example 71, (3S)-3-{[2-(4-fluorophenyl)[1,2,4]triazolo[1,5-c]quinazolin-5-yl]amino}azepan-2-one]"
11,0.0142 µM,"COc1cccc(-c2nc3c4cc(C)ccc4nc(N[C@H]4CCCCNC4=O)n3n2)c1 [Example 156, (3S)-3-{[2-(3-methoxyphenyl)-9-methyl[1,2,4]triazolo[1,5-c]quinazolin-5-yl]amino}azepan-2-one]"
12,0.000744 µM,"N#Cc1ccc(-c2nc3c4cccc(C(F)(F)F)c4nc(N[C@@H]4CCCCNC4=O)n3n2)cc1 [Example 671, 4-[5-{[(3R)-2-oxoazepan-3-yl]amino}-7-(trifluoromethyl)[1,2,4]triazolo[1,5-c]quinazolin-2-yl]benzonitrile]"

# Same assay, conditions: read-out: AHR Antagonism Mouse IC50, Hepa 1c1c7 cells, 200 μM kynurenic acid, 20 hours, firefly luciferase reporter
row,SMILES,IC50
1,"C[C@@H](Nc1nc2ccccc2c2nc(-c3ccccc3OC(F)(F)F)nn12)C(=O)NCCN(C)C [Example 791, formic acid-N-[2-(dimethylamino)ethyl]-N^2-{2-[2-(trifluoromethoxy)phenyl][1,2,4]triazolo[1,5-c]quinazolin-5-yl}-D-alaninamide (1/1)]",0.264 µM

# Same assay, conditions: read-out: AHR Antagonism Mouse IC50, mouse Hepa 1c1c7 cells, 200 μM kynurenic acid, 20 hours
row,SMILES,IC50
1,O=C1NCCCC[C@@H]1Nc1nc2ccccc2c2nc(-c3cc(C(F)(F)F)ccn3)nn12 [Example 364],0.247 µM
